Active and inactive are the calls of the source. Where a SMILES comes first, the peptide text is derived from it. The star is where a group is joined. X1 = O=[N+]([O-])c1ccc(OCCOCCOCCOCCOCCOCCN*)c([N+](=O)[O-])c1; FITC = O=C1OC2(c3ccc(O)cc3Oc3cc(O)ccc32)c2ccc(NC(=S)*)cc21; X2 = O=[N+]([O-])c1ccc(OCCOCCOCCN*)c([N+](=O)[O-])c1; X3 = O=[N+]([O-])c1ccc(OCCN*)c([N+](=O)[O-])c1; Ahx = NCCCCCC(=O)O

Results on five compounds are retold here after ChEMBL document CHEMBL5584321, “Chemoenzymatic Synthesis of DNP-Functionalized FGFR1-Binding Peptides as Novel Peptidomimetic Immunotherapeutics for Treating Lung Cancer” (J Med Chem, 2024).

Data set [1] deals with L6. In words: Binding affinity to human full-length wild type FGFR1c stably expressed in rat L6 cells assessed as increase in green fluorescence signal incubated for 1 hr by Alexa-488 staining based confocal fluorescence microscopic analysis. It is filed as cell-based.
Data set [2] concerns L6. Nature of the data set: Induction of apoptosis in FGF2-induced rat L6 cells stably expressing human full-length FGFR1c assessed as downregulation of BCL-2 expression at 50 uM incubated for 24 hrs by Western blotting analysis. The class given is functional, cell-based. (In western blotting, separated proteins are transferred to a membrane and probed.)
Data set [3] has as its system L6. Nature of the data set: Induction of apoptosis in FGF2-induced rat L6 cells stably expressing human full-length FGFR1c assessed as upregulation of cleaved PARP expression at 50 uM incubated for 24 hrs by Western blotting analysis. The class given is functional, cell-based.
Data set [4] relates to L6. In words: Induction of apoptosis in FGF2-induced rat L6 cells stably expressing human full-length FGFR1c assessed as upregulation of cleaved caspase-3 expression at 50 uM incubated for 24 hrs by Western blotting analysis. It is filed as functional, cell-based.
Data set [5] deals with L6. In words: Binding affinity to human full-length wild type FGFR1c stably expressed in rat L6 cells assessed as fold change in fluorescence intensity at 10 uM by antibody recruiting based flow cytometry relative to Pep1. The class given is cell-based. A general note: In flow cytometry, cells or beads pass a laser one at a time.
The test system of data set [6] is NCI-H1581. Nature of the data set: Binding affinity to FGFR1c in human NCI-H1581 cells assessed as fold change in fluorescence intensity at 10 uM by antibody recruiting based flow cytometry relative to Pep1. It is filed as cell-based.
Data set [7] concerns L6. In words: Binding affinity to human full-length wild type FGFR1c stably expressed in rat L6 cells assessed as increase in fluorescence signal by antibody recruiting based flow cytometry. The class given is cell-based.
Data set [8] deals with L6. In words: Binding affinity to human full-length wild type FGFR1c stably expressed in rat L6 cells assessed as fluorescence intensity at 10 uM by antibody recruiting based flow cytometry. It is filed as cell-based.
The test system of data set [9] is NCI-H1581. Nature of the data set: Binding affinity to FGFR1c in human NCI-H1581 cells assessed as fluorescence intensity at 10 uM by antibody recruiting based flow cytometry. It is filed as cell-based.
The subject of data set [10] is L6. Nature of the data set: Binding affinity to FGFR1c in rat L6 cells assessed as increase in green fluorescence signal incubated for 1 hr by Alexa-488 staining based confocal fluorescence microscopic analysis. It is filed as cell-based.
Data set [11] deals with NCI-H1581. Nature of the data set: Binding affinity to FGFR1c in human NCI-H1581 cells assessed as increase in green fluorescence signal incubated for 1 hr by Alexa-488 staining based confocal fluorescence microscopic analysis. It is filed as cell-based.
The test system of data set [12] is NCI-H1581. In words: Binding affinity to FGFR1c in human NCI-H1581 cells assessed as increase in fluorescence signal by antibody recruiting based flow cytometry. It is filed as cell-based.
The test system of data set [13] is L6. In words: Antiproliferative activity against FGF2-induced rat L6 cells stably expressing human full-length FGFR1c assessed as inhibition of cell growth at 100 uM incubated for 36 hrs by CCK-8 assay relative to control. The class given is functional.
The subject of data set [14] is L6. In words: Induction of cell lysis in rat L6 cells stably expressing human full-length FGFR1c at 1 uM incubated for 1 hr by complement dependent cytotoxicity based CCK-8 assay relative to control. The class given is functional.
Data set [15] relates to L6. In words: Induction of cell lysis in rat L6 cells at 1 uM incubated for 1 hr by complement dependent cytotoxicity based CCK-8 assay relative to control. The class given is functional.
A short description of data set [16]: Binding affinity to CM5 sensor chip immobilized human full-length wild type FGFR1c assessed as dissociation constant by SPR analysis. On the technique in general: In SPR one partner is held on a chip, and binding of the other changes the refractive index at the surface.
Data set [17] has as its system L6. Nature of the data set: Antiproliferative activity against FGF2-induced rat L6 cells stably expressing human full-length FGFR1c assessed as inhibition of cell growth incubated for 36 hrs by CCK-8 assay. The class given is functional, cell-based.
Data set [18] concerns NCI-H1581. Nature of the data set: Induction of cell lysis in human NCI-H1581 cells at 1 uM incubated for 1 hr by complement dependent cytotoxicity based CCK-8 assay relative to control. It is filed as functional.
Data set [19] has as its system L6. Nature of the data set: Binding affinity to human full-length wild type FGFR1c stably expressed in rat L6 cells assessed as increase in green fluorescence signal at 2 uM by DAPI staining based confocal […] microscopic analysis. The class given is cell-based.
A short description of data set [20]: Cmax in immunized Sprague-Dawley rat at 1.5 mg/kg,SC administration measured upto 24 hrs by fluorescence based microplate reader assay. It is filed as ADME, organism-based. The note with it: in vivo.
The subject of data set [21] is L6. In words: Induction of apoptosis in FGF2-induced rat L6 cells stably expressing human full-length FGFR1c assessed as upregulation of cleaved PARP expression incubated for 24 hrs by Western blotting analysis. It is filed as functional, cell-based.
Data set [22] has as its system L6. In words: Binding affinity to FGFR1c in rat L6 cells assessed as increase in green fluorescence signal at 2 uM by DAPI staining based confocal […] microscopic analysis. It is filed as cell-based.
Data set [23] can be described thus: AUC in immunized Sprague-Dawley rat at 1.5 mg/kg,SC administration measured upto 24 hrs by fluorescence based microplate reader assay. It is filed as ADME, organism-based. The following applies: in vivo.
Data set [24] has as its system L6. In words: Induction of apoptosis in FGF2-induced rat L6 cells stably expressing human full-length FGFR1c assessed as upregulation of cleaved caspase-3 expression incubated for 24 hrs by Western blotting analysis. The class given is functional, cell-based.
Data set [25] is described as follows: Tmax in immunized Sprague-Dawley rat at 1.5 mg/kg,SC administration measured upto 24 hrs by fluorescence based microplate reader assay. It is filed as ADME, organism-based. The following applies: in vivo.
Data set [26] can be described thus: Half life in immunized Sprague-Dawley rat at 1.5 mg/kg,SC administration measured upto 24 hrs by fluorescence based microplate reader assay. The class given is ADME, organism-based. The note with it: in vivo.
In data set [27] the test system is NCI-H1581. In words: Antitumor activity against human NCI-H1581 cells xenografted BALB/c mouse model assessed as inhibition of tumor growth at 20 mg/kg,SC administrated once daily for 12 days relative to control. It is filed as functional. The following applies: NCI-H1581, 288 h, time 12 day.

Take `CC(C)C[C@H](NC(=O)[C@H](CO)NC(=O)[C@H](C)NC(=O)[C@H](Cc1c[nH]c2ccccc12)NC(=O)[C@H](CCCCN)NC(=O)[C@H](CCCCN)NC(=O)[C@H](CCCNC(=N)N)NC(=O)[C@@H](NC(=O)[C@H](CO)NC(=O)[C@H](CCCNC(=N)N)NC(=O)[C@@H](N)CCCNC(=N)N)C(C)C)C(=O)N[C@@H](Cc1ccc(O)cc1)C(=O)N[C@@H](Cc1ccc(O)cc1)C(=O)N[C@@H](CO)C(=O)N[C@@H](Cc1ccc(O)cc1)C(=O)N[C@@H](CC(C)C)C(=O)N1CCC[C@H]1C(=O)N[C@@H](CCC(=O)O)C(=O)N[C@H](C(=O)NCC(=O)NCC(=O)NCC(=O)NCCOCCOCCOCCOCCOCCOc1ccc([N+](=O)[O-])cc1[N+](=O)[O-])[C@@H](C)O` (H-RRSVRKKWASLYYSYLPETGGG-X1): in the data set with L6 [1], the result was inactive.

By inhibition is commonly meant the change of the read-out against control, counted positive when it falls. In general, Kd refers to a measure of binding affinity in units of concentration. With `CC(C)C[C@H](NC(=O)[C@H](C)NC(=O)[C@@H](NC(=O)[C@H](Cc1ccc(O)cc1)NC(=O)[C@H](Cc1c[nH]c2ccccc12)NC(=O)[C@H](CO)NC(=O)[C@H](CO)NC(=O)[C@H](Cc1ccc(O)cc1)NC(=O)[C@H](CCCCN)NC(=O)[C@H](CCCNC(=N)N)NC(=O)[C@H](CO)NC(=O)[C@H](CCCNC(=N)N)NC(=O)[C@@H](N)Cc1ccc(O)cc1)C(C)C)C(=O)N[C@@H](CCCCN)C(=O)N[C@@H](CCCNC(=N)N)C(=O)N[C@@H](CC(C)C)C(=O)N1CCC[C@H]1C(=O)N[C@@H](CCC(=O)O)C(=O)N[C@H](C(=O)NCC(=O)NCC(=O)NCC(=O)NCCOCCOCCOc1ccc([N+](=O)[O-])cc1[N+](=O)[O-])[C@@H](C)O` (H-YRSRKYSSWYVALKRLPETGGG-X2), the result in the data set on L6 [2], in the data set on L6 [3], with L6 [1], in the data set on L6 [4] and in the data set on NCI-H1581 [11] was Active. Further, the results for the fold change (FC) with L6 [5] and with NCI-H1581 [6] were 33.4 and 3.6, respectively. Besides, the Activity result was “Dose-Dependent Effect” in the data set with L6 [7]; “Dose-Dependent Effect” in the data set on NCI-H1581 [12]; 25.9% with L6 [14]; “Dose-Dependent Effect” with L6 [17]; 31.7% in the data set with NCI-H1581 [18]. For the same compound, the Flu intensity in the data set with L6 [8] was 0.3 10^4No_unit; with NCI-H1581 [9] it was 0.5 10^3No_unit. For the same compound, the result with L6 [10] and in the data set with L6 [15] was inactive. Moreover, the inhibition at 100 µM in the data set on L6 [13] worked out at 100%. In addition, in data set [16], the Kd was 5.37 µM.

Regarding `CC(C)C[C@H](NC(=O)[C@H](C)NC(=O)[C@@H](NC(=O)[C@H](Cc1ccc(O)cc1)NC(=O)[C@H](Cc1c[nH]c2ccccc12)NC(=O)[C@H](CO)NC(=O)[C@H](CO)NC(=O)[C@H](Cc1ccc(O)cc1)NC(=O)[C@H](CCCCN)NC(=O)[C@H](CCCNC(=N)N)NC(=O)[C@H](CO)NC(=O)[C@H](CCCNC(=N)N)NC(=O)[C@@H](N)Cc1ccc(O)cc1)C(C)C)C(=O)N[C@@H](CCCCN)C(=O)N[C@@H](CCCNC(=N)N)C(=O)N[C@@H](CC(C)C)C(=O)N1CCC[C@H]1C(=O)N[C@@H](CCC(=O)O)C(=O)N[C@H](C(=O)NCC(=O)NCC(=O)NCC(=O)NCCOc1ccc([N+](=O)[O-])cc1[N+](=O)[O-])[C@@H](C)O` (H-YRSRKYSSWYVALKRLPETGGG-X3), the result with L6 [2], with L6 [3], with L6 [1], in the data set with L6 [4] and with NCI-H1581 [11] was Active. The fold change (FC) with L6 [5] was 180; in the data set with NCI-H1581 [6], 22.4. Also, the Activity result is “Dose-Dependent Effect” with L6 [7]; “Dose-Dependent Effect” in the data set with NCI-H1581 [12]; 29.3% in the data set with L6 [14]; “Dose-Dependent Effect” in the data set on L6 [17]; 35.8% in the data set on NCI-H1581 [18]. Also, the Flu intensity was 1.6 10^4No_unit in the data set with L6 [8] and 3.5 10^3No_unit with NCI-H1581 [9]. Also, the outcome in the data set on L6 [10] and in the data set with L6 [15] was inactive. In addition, in the data set on L6 [13], the inhibition at 100 µM was 100%. For the same compound, the Kd in data set [16] was 5.95 µM.

Turning to `CC(C)C[C@H](NC(=O)[C@H](CO)NC(=O)[C@H](C)NC(=O)[C@H](Cc1c[nH]c2ccccc12)NC(=O)[C@H](CCCCN)NC(=O)[C@H](CCCCN)NC(=O)[C@H](CCCNC(=N)N)NC(=O)[C@@H](NC(=O)[C@H](CO)NC(=O)[C@H](CCCNC(=N)N)NC(=O)[C@H](CCCNC(=N)N)NC(=O)CCCCCNC(=S)Nc1ccc2c(c1)C(=O)OC21c2ccc(O)cc2Oc2cc(O)ccc21)C(C)C)C(=O)N[C@@H](Cc1ccc(O)cc1)C(=O)N[C@@H](Cc1ccc(O)cc1)C(=O)N[C@@H](CO)C(=O)N[C@@H](Cc1ccc(O)cc1)C(N)=O` ({FITC-Ahx}-RRSVRKKWASLYYSY-NH2), the outcome with L6 [19] was inactive.

Usually Cmax stands for the peak of the concentration-time curve. Usually AUC stands for the area under the concentration-time curve, a measure of exposure. Low readings indicate low exposure, high ones high exposure. For orientation: Tmax means the time at which the peak concentration occurs. In general, half-life refers to the time needed for the level to fall by half in the phase considered. A high value points to slow loss. The term inhibition in vivo denotes how much of the control response was suppressed. In turn, H-YRSRKYSSWYVALKRLPET-NH2 gave a Cmax in data set [20] of 205 ng/mL. Also, the Activity result in the data set on L6 [21], with L6 [24] and in the data set with L6 [17] was “Dose-Dependent Effect” throughout. Also, the outcome with L6 [22] was inactive. In data set [23], this compound yielded an area under the curve (AUC) at 24 h of 711 ng·h/mL. Moreover, the Tmax in data set [25] amounted to 0.58 h. Moreover, the inhibition at 100 µM in the data set on L6 [13] came to 100%. Besides, the outcome with L6 [19] was Active. Besides, the Kd in data set [16] was found to be 1.6 µM. Besides, the half-life in data set [26] is 2.12 h. In the data set with NCI-H1581 [27], the inhibition in vivo at 20 mg/kg is 44.2%.
